From patent US20240246967A1, “AXL COMPOUNDS” (ARCUS BIOSCIENCES, INC., priority 2021, published 2024)

How the values were obtained:
[1] = target: T1, human TYRO3 (Homo sapiens, UniProt Q06418); experiment: HTRF KinEASE-TK biochemical potency assay, TYRO3; conditions: 1 nM TYRO3, 700 μM ATP, 800 nM TK Substrate-biotin
T1 construct: purchased Invitrogen
T1 sequence (Q06418 41-890): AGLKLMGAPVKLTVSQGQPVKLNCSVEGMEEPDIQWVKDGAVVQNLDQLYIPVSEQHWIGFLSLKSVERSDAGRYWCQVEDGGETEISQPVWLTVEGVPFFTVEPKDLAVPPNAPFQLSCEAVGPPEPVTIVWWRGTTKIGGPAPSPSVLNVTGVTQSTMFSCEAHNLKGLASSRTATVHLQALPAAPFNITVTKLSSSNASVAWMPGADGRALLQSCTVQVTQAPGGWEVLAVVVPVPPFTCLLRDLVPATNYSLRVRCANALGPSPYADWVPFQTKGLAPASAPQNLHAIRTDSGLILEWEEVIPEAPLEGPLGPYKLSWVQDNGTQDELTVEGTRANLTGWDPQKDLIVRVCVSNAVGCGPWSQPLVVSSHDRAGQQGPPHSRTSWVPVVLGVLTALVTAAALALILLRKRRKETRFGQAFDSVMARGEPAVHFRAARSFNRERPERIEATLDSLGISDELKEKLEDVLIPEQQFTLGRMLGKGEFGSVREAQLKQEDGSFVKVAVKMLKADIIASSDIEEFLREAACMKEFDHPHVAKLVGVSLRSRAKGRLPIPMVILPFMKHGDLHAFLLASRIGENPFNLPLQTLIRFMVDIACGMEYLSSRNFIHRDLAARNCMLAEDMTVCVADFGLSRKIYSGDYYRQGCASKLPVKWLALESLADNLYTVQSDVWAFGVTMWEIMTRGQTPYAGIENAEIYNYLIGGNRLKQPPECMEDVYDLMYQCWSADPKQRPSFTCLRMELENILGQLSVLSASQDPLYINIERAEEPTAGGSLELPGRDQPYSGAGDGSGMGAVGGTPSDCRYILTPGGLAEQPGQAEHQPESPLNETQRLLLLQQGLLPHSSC
Method in brief: (§1)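 Recombinant human kinase preincubated 1 h at RT with compound, then reacted 2 h at RT with final 5 nM AXL or 1 nM TYRO3/MER, 800 nM TK Substrate-biotin and 700 μM ATP in HEPES pH 7.4, 10 mM MgCl2, 1% DMSO. Phosphorylation read by HTRF 665/620 ratio, expressed as percent activity.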

[2] = target: T2, Axl (Homo sapiens, UniProt P30530); experiment: HTRF KinEASE-TK biochemical potency assay, AXL; set-up: purchased Invitrogen; conditions: 5 nM AXL, 700 μM ATP, 800 nM TK Substrate-biotin
T2 sequence (P30530 26-894): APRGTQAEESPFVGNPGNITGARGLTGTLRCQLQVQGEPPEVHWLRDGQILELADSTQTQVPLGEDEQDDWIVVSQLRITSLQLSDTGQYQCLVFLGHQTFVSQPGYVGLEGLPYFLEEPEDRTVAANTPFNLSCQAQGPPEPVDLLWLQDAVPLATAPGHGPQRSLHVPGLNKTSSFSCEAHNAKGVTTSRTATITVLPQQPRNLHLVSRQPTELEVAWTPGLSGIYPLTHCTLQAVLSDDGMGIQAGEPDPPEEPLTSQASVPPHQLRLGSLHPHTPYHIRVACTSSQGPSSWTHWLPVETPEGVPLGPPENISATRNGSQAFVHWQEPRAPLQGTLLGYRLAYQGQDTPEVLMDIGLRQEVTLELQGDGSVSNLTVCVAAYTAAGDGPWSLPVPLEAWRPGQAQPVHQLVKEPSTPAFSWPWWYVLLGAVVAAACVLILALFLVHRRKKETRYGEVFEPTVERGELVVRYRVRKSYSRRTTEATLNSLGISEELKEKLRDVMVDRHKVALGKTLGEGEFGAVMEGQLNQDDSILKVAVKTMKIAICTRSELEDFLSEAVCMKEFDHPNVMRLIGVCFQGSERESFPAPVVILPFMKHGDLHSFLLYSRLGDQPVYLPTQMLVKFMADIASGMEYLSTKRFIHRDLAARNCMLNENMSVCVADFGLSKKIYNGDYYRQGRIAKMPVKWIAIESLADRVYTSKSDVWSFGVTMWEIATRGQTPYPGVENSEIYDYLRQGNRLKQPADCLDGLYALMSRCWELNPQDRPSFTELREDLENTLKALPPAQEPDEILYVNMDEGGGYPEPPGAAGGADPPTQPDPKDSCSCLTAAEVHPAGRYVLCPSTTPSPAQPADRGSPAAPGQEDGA
Method in brief: as §1

For FC1CN(c2ccc(-c3c[nH]c4ncc(-c5ccc6c(c5)CC[C@@H](N5C7COCC5C7)CC6)cc34)cc2)C1 [Example 127, 6-[(7S)-2-{3-[4-(3-fluoroazetidin-1-yl)phenyl]-1H-pyrrolo[2,3-b]pyridin-5-yl}-6,7,8,9-tetrahydro-5H-benzo[7]annulen-7-yl]-3-oxa-6-azabicyclo[3.1.1]heptane], the IC50 [1] was 100 to 1000 nM and the IC50 [2] was less than 100 nM.
